Source: PubChem BioAssay (NCI)
Where “and” joins values, the source holds several entries; their conditions need not be identical. Equal entries are not always repeated.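 Test compounds were applied to cells in 96-well plates for 48 hours at 5 doses. GI50 is the concentration that inhibits growth by half. Definition used: TGI = concentration required for complete inhibition of growth.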

Key:
Assay in all cases: NCI tumour cell line growth inhibition, 48 h
COLO 205 colon = tested on: COLO 205 colon
SF-295 CNS = tested on: SF-295 CNS
RPMI-8226 leukemia = tested on: RPMI-8226 leukemia
K-562 leukemia = tested on: K-562 leukemia
HOP-62 NSCLC = tested on: HOP-62 NSCLC
MDA-MB-435 = tested on: MDA-MB-435
LOX IMVI melanoma = tested on: LOX IMVI melanoma
SK-MEL-2 melanoma = tested on: SK-MEL-2 melanoma

SMILES | GI50 (COLO 205 colon) | TGI (COLO 205 colon) | GI50 (SF-295 CNS) | TGI (SF-295 CNS) | GI50 (RPMI-8226 leukemia) | TGI (RPMI-8226 leukemia) | GI50 (K-562 leukemia) | TGI (K-562 leukemia) | GI50 (HOP-62 NSCLC) | TGI (HOP-62 NSCLC) | GI50 (MDA-MB-435) | TGI (MDA-MB-435) | GI50 (LOX IMVI melanoma) | TGI (LOX IMVI melanoma) | GI50 (SK-MEL-2 melanoma) | TGI (SK-MEL-2 melanoma)
O=C1/C(=C\c2cccn2Cc2ccccc2)c2ccccc2N1c1c(Cl)cccc1Cl | 1.36 µM | 6.26 µM | > 100 µM | > 100 µM | 1.3 µM | > 100 µM | > 100 µM | > 100 µM | > 100 µM | > 100 µM | > 100 µM | > 100 µM | > 100 µM | > 100 µM | 2.4 µM | > 30.1 µM
CCOC(=O)N1CCN(C(=O)c2ccc(C(F)(F)F)nc2Nc2cc(Cl)ccc2C)CC1 | 18.9 µM | 51.6 µM | 14.6 µM | 65.3 µM | 11.4 µM | 64.8 µM | 6.31 µM | > 100 µM | 25.8 µM | > 100 µM | 5.86 µM | 26.7 µM | 19.7 µM | > 100 µM | 22.3 µM | 72.9 µM
CCN(CC)CC(C)(C)C(=O)/C=C/c1ccc(Cl)c(Cl)c1 | 1.7 µM | 3.34 µM | 1.74 µM | 3.22 µM | 1.96 µM | 5.47 µM | 1.1 µM | 6.29 µM | 1.75 µM | 3.29 µM | 1.6 µM | 3.28 µM | 0.774 µM | 2.03 µM | 2.5 µM | 4.63 µM
CCN(CC)CCOc1ccc(/C(=C(\C)c2ccc(F)c(OC)c2)c2ccc(Cl)cc2)cc1 | 1.82 µM | 4.51 µM | 2.61 µM | 4.98 µM | 2.6 µM | 6.3 µM | 0.855 µM | 6 µM | 2.51 µM | 4.99 µM | 2.43 µM | 4.61 µM | 2.46 µM | 4.66 µM | 2.8 µM | 5.51 µM
Nc1nc(Cl)cc(NCCO)n1 | – | > 100 µM | – | > 100 µM | – | > 100 µM | – | > 100 µM | – | > 100 µM | – | > 100 µM | – | > 100 µM | – | > 100 µM
CC(=O)c1c(CBr)n([O-])c2ccccc2[n+]1=O | 1.81 µM | 3.63 µM | 19.8 µM | 43.8 µM | 4.9 µM | 30.5 µM | 3.45 µM | 12.5 µM | 15.6 µM | 29.7 µM | 12.5 µM | 25.6 µM | 10.8 µM | 23 µM | 14.4 µM | 30 µM
O=C(Nc1cccc(Cl)c1)c1cc2ccccc2cc1O | 19.1 µM and 13.6 µM | > 100 µM and 79 µM | 4.11 µM and 13.1 µM | > 100 µM | 1.52 µM and 0.535 µM | – | 1.38 µM and 0.888 µM | > 100 µM | 2.8 µM and 2.47 µM | – | 2.38 µM and 2.02 µM | > 100 µM | 3.73 µM and 1.75 µM | > 100 µM | 0.415 µM and 2.94 µM | 4.63 µM and 40.8 µM
CCCCCc1c(C)[nH]c(/C=C2\N=C(c3ccc[nH]3)C=C2CC)c1C | 0.0188 µM | 0.134 µM | < 0.01 µM | 0.0363 µM | < 0.01 µM | 0.0962 µM | < 0.01 µM | 0.176 µM | 0.0128 µM | 0.0795 µM | < 0.01 µM | 0.108 µM | < 0.01 µM | – | < 0.01 µM | 0.0257 µM
Nc1c(C(=O)N/N=C/c2ccc(-c3ccc(Cl)cc3)o2)cnn1-c1ccnc2c(C(F)(F)F)cccc12 | > 100 µM | > 100 µM | > 100 µM | > 100 µM | 0.496 µM | > 100 µM | 97.7 µM | > 100 µM | > 100 µM | > 100 µM | > 100 µM | > 100 µM | > 100 µM | > 100 µM | > 100 µM | > 100 µM
NC(N)=N/N=C/c1cc(Cl)cc(Cl)c1O | – | > 100 µM | – | > 100 µM | – | > 100 µM | – | > 100 µM | – | > 100 µM | – | > 100 µM | – | > 100 µM | – | > 100 µM
Cc1ccc(Nc2nc(N)c(C(=O)c3ccc(C#N)cc3)s2)cc1 | 0.279 µM | 6.64 µM | 0.328 µM | 37.7 µM | 0.56 µM | > 100 µM | 0.0685 µM | > 100 µM | 0.503 µM | > 70.3 µM | 0.0779 µM | – | 0.522 µM | > 100 µM | 0.435 µM | 46.1 µM
CCOC(=O)C1=C(C)N(N)C(=S)NC1c1ccc(C)cc1 (stereo not drawn) | 33.5 µM | > 100 µM | 36.9 µM | > 100 µM | 44.7 µM | > 100 µM | 21.6 µM | > 100 µM | > 100 µM | > 100 µM | 14.8 µM | 72.2 µM | 9.19 µM | > 100 µM | 21.4 µM | > 100 µM
COc1ccc(CNc2c3ccccc3nc3ccccc23)cc1OC | 1.32 µM | 3.82 µM | 2.19 µM | 7.2 µM | 2.2 µM | 5.59 µM | 2.34 µM | 25.2 µM | 2.96 µM | 13.3 µM | 2.93 µM | 10 µM | 1.4 µM | 3.47 µM | 2.28 µM | 6.4 µM
COc1ccc(C2C(C#N)=C(N)OC3=C2COc2ccc(F)cc23)cc1OC (stereo not drawn) | 19.1 µM | > 100 µM | 27.5 µM | 67.5 µM | 15.8 µM | 52.6 µM | 31.8 µM | > 100 µM | 27.9 µM | > 100 µM | 23.6 µM | 62.3 µM | 11.3 µM | 24.1 µM | 68.7 µM | > 100 µM
CC(=O)O[C@@H]1C[C@]2(C(C)C)O[C@@]1(C)[C@@H]1CCC(C)=C1[C@@H]2OC(=O)/C=C/c1ccccc1 | 31.4 µM | > 100 µM | 38.6 µM | > 100 µM | 9.63 µM | 57.4 µM | 33.7 µM | > 100 µM | 88.8 µM | > 100 µM | 39.1 µM | > 100 µM | 29.4 µM | > 100 µM | > 100 µM | > 100 µM
CCN(CC)CCNCC(=O)Oc1ccc(/C=C/C(=O)CC(=O)/C=C/c2ccc(OC(=O)CNCCN(CC)CC)c(OC)c2)cc1OC | 5.06 µM | 22.8 µM | 5.55 µM | 22.2 µM | 1.91 µM | 6.01 µM | 28.7 µM | > 100 µM | 3.34 µM | 12.8 µM | 2.48 µM | 12.4 µM | 2.13 µM | 4.71 µM | 3.39 µM | 12.7 µM
N#CC1Nc2ccccc2[C@@H](O)C1O (stereo partly drawn) | – | > 100 µM | – | > 100 µM | – | > 100 µM | – | > 100 µM | – | > 100 µM | – | > 100 µM | – | > 100 µM | – | > 100 µM
Nc1ccncc1/C=C1/C(=O)Nc2ccccc21 | 19.8 µM | > 100 µM | 28.2 µM | 79 µM | > 100 µM | > 100 µM | 33.6 µM | > 100 µM | 23.6 µM | 81.6 µM | 14.4 µM | 35.4 µM | 28 µM | > 100 µM | 19.4 µM | 87.3 µM
O=C(Nc1cccc(Cl)c1Cl)c1cccc(NC2=C(Cl)C(=O)N(Cc3ccccc3)C2=O)c1 | > 100 µM | > 100 µM | 35.7 µM | > 100 µM | 7.96 µM | 35.1 µM | 5.32 µM | 37.5 µM | > 100 µM | > 100 µM | 20.4 µM | 53.2 µM | 13.1 µM | > 100 µM | 16.9 µM | 58.6 µM
CN1CCc2c(Sc3ccc(C(=O)NO)cc3)c3ccccc3n2C1 | 1.92 µM | 4.52 µM | 2.13 µM | 4.84 µM | 1.36 µM | 11.1 µM | 2.91 µM | > 33 µM | 1.97 µM | 6.12 µM | 1.61 µM | 3.34 µM | 1.64 µM | 3.57 µM | 2.01 µM | 4.55 µM
O=C(Nc1ccc(Cl)cc1F)c1cc(Br)ccc1O | 7.65 µM | 21.5 µM | 1.65 µM | 3.51 µM | 0.43 µM | 2.19 µM | 0.678 µM | > 100 µM | 1.25 µM | 7.96 µM | 0.941 µM | 8.44 µM | 0.769 µM | 4.92 µM | 0.467 µM | 3.18 µM
Nc1nc(Nc2ccccc2)c2ncn(Cc3cc4c(cc3Br)OCO4)c2n1 | 0.0716 µM | 0.375 µM | 0.037 µM | 7.27 µM | 0.0497 µM | > 52.7 µM | 0.0415 µM | > 39.9 µM | 0.0675 µM | 7.65 µM | 0.0301 µM | 0.129 µM | 0.0563 µM | > 100 µM | 0.0546 µM | 42.3 µM
NC(=O)C(=CNc1nc(-c2ccc(Cl)c(Cl)c2)cs1)C(N)=O | > 100 µM | > 100 µM | 37.1 µM | > 100 µM | 40.4 µM | > 100 µM | 75.8 µM | > 100 µM | > 100 µM | > 100 µM | 48.2 µM | > 100 µM | > 100 µM | > 100 µM | 75.6 µM | > 100 µM
COc1ccccc1/C=C/c1cnccn1 | – | > 10 µM | – | > 10 µM | – | > 10 µM | – | > 10 µM | – | > 10 µM | – | > 10 µM | – | > 10 µM | – | > 10 µM
